This is an account of results in article PMC8795149, “Characterization of a novel non-steroidal glucocorticoid receptor agonist optimized for topical treatment” (Scientific Reports, 2022).

Molecules are shown by their SMILES.

The test system of one data set is atopic dermatitis. Further details: method as in PMID 25614148. The following applies: atopic dermatitis patients; cited from earlier work.
The test system of a further data set is skin atrophy. The arrangement: method as in PMID 23639214. Conditions: healthy subjects; cited from earlier work.
Data set [1] addresses T1, mineralocorticoid receptor (MR) (Homo sapiens, UniProt P08235).
T1 sequence (P08235 1-984): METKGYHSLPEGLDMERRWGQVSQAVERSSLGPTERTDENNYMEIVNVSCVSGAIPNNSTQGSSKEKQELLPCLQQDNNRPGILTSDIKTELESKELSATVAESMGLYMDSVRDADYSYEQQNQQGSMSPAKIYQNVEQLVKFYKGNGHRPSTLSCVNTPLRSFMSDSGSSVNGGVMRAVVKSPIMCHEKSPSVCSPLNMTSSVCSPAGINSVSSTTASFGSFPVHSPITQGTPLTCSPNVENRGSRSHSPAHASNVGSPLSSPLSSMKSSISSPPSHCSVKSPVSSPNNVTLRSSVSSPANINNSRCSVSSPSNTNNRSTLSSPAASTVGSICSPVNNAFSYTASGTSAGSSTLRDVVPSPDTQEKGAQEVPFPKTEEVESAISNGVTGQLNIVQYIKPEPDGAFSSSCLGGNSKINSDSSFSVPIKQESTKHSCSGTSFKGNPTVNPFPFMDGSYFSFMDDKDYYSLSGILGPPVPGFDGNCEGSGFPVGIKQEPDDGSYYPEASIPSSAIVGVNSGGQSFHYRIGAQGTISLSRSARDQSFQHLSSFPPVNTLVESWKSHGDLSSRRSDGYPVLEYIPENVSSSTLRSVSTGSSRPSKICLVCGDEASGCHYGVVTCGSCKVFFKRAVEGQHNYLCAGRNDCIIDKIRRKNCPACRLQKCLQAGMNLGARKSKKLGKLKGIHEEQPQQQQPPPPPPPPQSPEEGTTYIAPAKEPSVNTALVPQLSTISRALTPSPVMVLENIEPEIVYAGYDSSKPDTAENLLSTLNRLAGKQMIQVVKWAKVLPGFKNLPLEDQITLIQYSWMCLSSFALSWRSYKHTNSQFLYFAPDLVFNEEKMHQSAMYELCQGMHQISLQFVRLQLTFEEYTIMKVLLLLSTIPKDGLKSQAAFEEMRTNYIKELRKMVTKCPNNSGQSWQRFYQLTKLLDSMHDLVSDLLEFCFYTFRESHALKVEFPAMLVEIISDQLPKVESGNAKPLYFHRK
The data set can be described thus: MR agonist assay, MR-luciferase reporter cells. It counts as cell-based. The following applies: 24 h incubation; 'in contrast' = unlike LEO 134310, which gave no significant activation. As to the method: Assays were performed at Indigo Biosciences according to standard protocols. In brief, MR-luciferase reporter cells were incubated with medium containing charcoal-stripped fetal bovine serum and incubated with test and reference compounds for 24 h before measuring luminescence. Data were fitted by the means of four parameter logistic regression.

For another data set, the system named is HPA axis. Further details: method as in PMID 3553247. The following applies: topical; cited from earlier work.

For `C[C@@H]1C[C@H]2[C@@H]3C[C@H](F)C4=CC(=O)C=C[C@]4(C)[C@@]3(F)[C@@H](O)C[C@]2(C)[C@@]1(OC(=O)C1C(C)(C)C1(C)C)C(=O)OCC#N` [GW870086], the Clinical efficacy result in the data set on atopic dermatitis is “did not achieve significant clinical efficacy”. Moreover, the “Induction of skin atrophy” value in the data set on skin atrophy is reported as “not to induce skin atrophy”.

For `C[C@]12CCC(=O)C=C1CC[C@@H]1[C@@H]2[C@@H](O)C[C@]2(C=O)[C@@H](C(=O)CO)CC[C@@H]12` [aldosterone], in data set [1], the “Activation of MR (luciferase activity)” value is “positive control”.

For the molecule `CCC(=O)OCC(=O)[C@@]1(OC(=O)CC)[C@@H](C)C[C@H]2[C@@H]3CCC4=CC(=O)C=C[C@]4(C)[C@@]3(F)[C@@H](O)C[C@@]21C` [betamethasone dipropionate], the “Effect on morning plasma cortisol” value in the data set on HPA axis is listed as “reduce morning plasma cortisol significantly”.
